Calls of active or inactive are those of the source.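 How the source made its calls: active means lipid-stain IC50 at or below a set limit, with nuclear-stain toxicity IC50 at least five times higher; inactive means the rest.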 Where only a bound is given, the exact number is not on record here.

In one assay the test system is DAPI. Kind of assay: TAG lipid buildup inhibition with viability readout – cell-based, panel, Nile Red and DAPI fluorescence, H9c2, dose response (AID 651630).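 Further: cells exposed to compound overnight before fixation and staining.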 To be noted: H9c2 cells, DAPI nuclear fluorescence (cytotoxicity counter-readout), oleic acid.
Another assay concerns TAG. Described as above. To be noted: H9c2 cells, Nile Red TAG fluorescence, oleic acid.

Consider `CCOC(=O)[C@H]1[C@H]2COc3ccc(Cl)cc3[C@@H]2N2C(=O)c3cc(OC)ccc3NC(=O)[C@@]12C`, for which the IC50 cytotoxicity (DAPI nuclear signal decrease) in the assay with DAPI (mean of runs) was > 25 µM (inactive); in the assay on DAPI (run 1), above 25 µM; in the assay on DAPI (run 2), above 25 µM. The results for the IC50 in the assay on TAG (mean of runs), in the assay with TAG (run 1) and with TAG (run 2) were > 25 µM (inactive), above 25 µM and above 25 µM, respectively.
On to `COC(=O)C1=C(c2cc3ccccc3s2)C[C@@H]2CC[C@H]1N2C(=O)N1CCOCC1`, for which the IC50 cytotoxicity (DAPI nuclear signal decrease) with DAPI (mean of runs) is > 25 µM (inactive); in the assay with DAPI (run 1) it was above 25 µM; with DAPI (run 2), above 25 µM. Besides, the IC50 – broadly, the concentration needed to halve the response being measured – with TAG (mean of runs) was > 25 µM (inactive); in the assay on TAG (run 1) it was above 25 µM; in the assay on TAG (run 2), above 25 µM.
`C=CCC[C@H](Cc1ccc(F)cc1)C(=O)OC[C@@H](NC(=O)[C@@H](CC=C)CC(=O)N(CCO)Cc1ccccc1)C(C)(C)C`: the IC50 cytotoxicity (DAPI nuclear signal decrease) with DAPI (run 1) and in the assay on DAPI (run 2) was above 25 µM in each case. For the same compound, the figures for the IC50 with TAG (mean of runs), in the assay with TAG (run 1) and in the assay on TAG (run 2) were 2.94 µM, 2.57 µM and 3.32 µM, respectively.
Regarding `COc1ccc(NC(=O)O[C@@H](C)[C@@H]2CN3CCc4c([nH]c5ccc(-c6ccc(OC)cc6)cc45)[C@@H]3C[C@@H]2N(C)C(=O)Nc2ccc(OC)cc2)cc1`, the IC50 cytotoxicity (DAPI nuclear signal decrease) was > 25 µM (inactive) in the assay with DAPI (mean of runs), above 25 µM in the assay with DAPI (run 1) and above 25 µM with DAPI (run 2). For the same compound, the results for the IC50 in the assay with TAG (mean of runs), with TAG (run 1) and with TAG (run 2) were 8.04 µM, 7.66 µM and 8.42 µM, respectively.
Take `CC(=O)Nc1ccc(-c2ccnc3c2CC(C(=O)NCc2cccc(Cl)c2)O3)cc1` (centres undefined): the IC50 cytotoxicity (DAPI nuclear signal decrease) was > 25 µM (inactive) with DAPI (mean of runs), above 25 µM with DAPI (run 1) and above 25 µM with DAPI (run 2). The figures for the IC50 in the assay on TAG (mean of runs), in the assay on TAG (run 1) and with TAG (run 2) were 13.3 µM, 15.9 µM and 10.7 µM, respectively.
Consider `CCc1cc2c3c(c1)C1(C(=O)N3C(C)(C)C=C2C)C(C#N)=C(N)Oc2[nH]c(=O)[nH]c(=O)c21` (centres undefined), for which the IC50 cytotoxicity (DAPI nuclear signal decrease) with DAPI (mean of runs) was > 25 µM (inactive); in the assay on DAPI (run 1), above 25 µM; in the assay with DAPI (run 2), above 25 µM. The values for the IC50 with TAG (mean of runs), in the assay on TAG (run 1) and in the assay on TAG (run 2) were > 25 µM (inactive), above 25 µM and above 25 µM, respectively.
Regarding `COc1ccc(OC)c(Nc2nc(-c3sc(NC(=O)CC(C)C)nc3C)cs2)c1`, the IC50 cytotoxicity (DAPI nuclear signal decrease) with DAPI (mean of runs) is > 25 µM (inactive); in the assay with DAPI (run 1), above 25 µM; with DAPI (run 2), above 25 µM. Moreover, the concentration for half-maximal inhibition (IC50) with TAG (mean of runs) was 14.1 µM; in the assay on TAG (run 1), 12.9 µM; in the assay with TAG (run 2), 15.3 µM.
For `O=C(N/N=C/c1cn(-c2ccccc2)nc1-c1cc2ccccc2o1)c1c[nH]c2ccccc12`, the values for the IC50 cytotoxicity (DAPI nuclear signal decrease) with DAPI (mean of runs), in the assay on DAPI (run 1) and in the assay on DAPI (run 2) were > 25 µM (inactive), above 25 µM and above 25 µM, respectively. Also, the IC50 with TAG (mean of runs) was 13.1 µM; in the assay with TAG (run 1) it was 14.7 µM; in the assay with TAG (run 2), 11.5 µM.
As for `CCN(CC)CCNC(=O)C(Cl)=C1C(Cl)=C(Cl)C(Cl)=C1Cl`, the values for the IC50 cytotoxicity (DAPI nuclear signal decrease) with DAPI (mean of runs), in the assay on DAPI (run 1) and in the assay on DAPI (run 2) were 21.4 µM (inactive), 20.2 µM and 22.7 µM, respectively. The IC50 was > 25 µM (inactive) with TAG (mean of runs), above 25 µM in the assay on TAG (run 1) and above 25 µM in the assay with TAG (run 2).
Consider `COc1ccc(CC(N)c2csc(NC(=O)Nc3ccccc3C(C)C)n2)cc1` (centres undefined), for which the IC50 cytotoxicity (DAPI nuclear signal decrease) is 21.5 µM (inactive) in the assay on DAPI (mean of runs), 20.3 µM in the assay on DAPI (run 1) and 22.7 µM in the assay with DAPI (run 2). For the same compound, the IC50 in the assay with TAG (mean of runs) is > 25 µM (inactive); in the assay on TAG (run 1), above 25 µM; in the assay with TAG (run 2), above 25 µM.
For `CCOc1cc(CNC(C)(C)C)ccc1OCC(=O)Nc1cccc(C(F)(F)F)c1`, the IC50 cytotoxicity (DAPI nuclear signal decrease) with DAPI (mean of runs) was > 25 µM (inactive); in the assay with DAPI (run 1), above 25 µM; in the assay with DAPI (run 2), above 25 µM. Besides, the IC50 is 16.3 µM (inactive) with TAG (mean of runs), 15.5 µM in the assay on TAG (run 1) and 17.2 µM in the assay on TAG (run 2).
Turning to `CCOC(=O)C1=C(C)N(C[C@@H]2CC[C@@H](Cc3ccc(-c4ccccc4)cc3)O2)C(=O)NC1c1cccc2ccccc12` (some centres undefined), the results for the IC50 cytotoxicity (DAPI nuclear signal decrease) with DAPI (mean of runs), in the assay with DAPI (run 1) and in the assay on DAPI (run 2) were > 25 µM (inactive), above 25 µM and above 25 µM, respectively. For the same compound, the IC50 in the assay on TAG (mean of runs) is 13.6 µM; in the assay on TAG (run 1) it was 14 µM; in the assay on TAG (run 2), 13.2 µM.
`COc1cccc(-c2nc(-c3ccc(NC(=O)Cc4ccccc4OC)cc3)no2)c1`: the IC50 cytotoxicity (DAPI nuclear signal decrease) with DAPI (run 1) and in the assay on DAPI (run 2) was above 25 µM in each case. Besides, the values for the IC50 with TAG (mean of runs), in the assay with TAG (run 1) and with TAG (run 2) were 4.52 µM, 3.4 µM and 5.64 µM, respectively.
For `COc1ccc(-c2cnnc(N/N=C/c3ccc(-c4ccc([N+](=O)[O-])cc4)o3)n2)cc1`, the IC50 cytotoxicity (DAPI nuclear signal decrease) is > 25 µM (inactive) with DAPI (mean of runs), above 25 µM with DAPI (run 1) and above 25 µM in the assay on DAPI (run 2). Also, the 50% inhibitory concentration (IC50) in the assay on TAG (mean of runs) is 11 µM; in the assay on TAG (run 1), 11.6 µM; in the assay with TAG (run 2), 10.4 µM.
Regarding `CCOC(=O)c1c(C)[nH]c(C(=O)OCC(=O)NCCc2ccc(OCC)c(OCC)c2)c1C`, the IC50 cytotoxicity (DAPI nuclear signal decrease) was > 25 µM (inactive) in the assay with DAPI (mean of runs), above 25 µM in the assay on DAPI (run 1) and above 25 µM with DAPI (run 2). In addition, the results for the IC50 in the assay with TAG (mean of runs), in the assay on TAG (run 1) and in the assay on TAG (run 2) were > 25 µM (inactive), above 25 µM and above 25 µM, respectively.
On to `COc1ccc(-c2ccc3[nH]c4c(c3c2)CCN2C(=O)[C@@H]([C@H](C)O)[C@@H](N(C)C(=O)Nc3cc(Cl)cc(Cl)c3)C[C@@H]42)cc1`, for which the values for the IC50 cytotoxicity (DAPI nuclear signal decrease) in the assay with DAPI (mean of runs), in the assay with DAPI (run 1) and in the assay on DAPI (run 2) were > 25 µM (inactive), above 25 µM and above 25 µM, respectively. The IC50 in the assay on TAG (mean of runs) is 19.5 µM (inactive); in the assay with TAG (run 1), 17.4 µM; in the assay on TAG (run 2), 21.5 µM.
In the case of `N/C(=N\c1nc2ccccc2o1)NC(=O)c1ccc(F)cc1`, the IC50 cytotoxicity (DAPI nuclear signal decrease) is > 25 µM (inactive) in the assay on DAPI (mean of runs), above 25 µM with DAPI (run 1) and above 25 µM in the assay with DAPI (run 2). For the same compound, the IC50 with TAG (mean of runs) is > 25 µM (inactive); in the assay with TAG (run 1), above 25 µM; in the assay on TAG (run 2) it was above 25 µM.
Regarding `COc1ccc([C@H]2C[C@H](O)[C@@H](n3cc(-c4ccc(F)cc4)nn3)CN2Cc2cccs2)cc1`, the IC50 cytotoxicity (DAPI nuclear signal decrease) in the assay on DAPI (run 1) is 23.6 µM; with DAPI (run 2), above 25 µM. In addition, the IC50 in the assay with TAG (mean of runs) was 18.3 µM (inactive); in the assay on TAG (run 1) it was 12.2 µM; in the assay with TAG (run 2) it was 24.3 µM.
For `C[C@@]12C(=O)Nc3ccc(Br)cc3C(=O)N1[C@H]1c3cc(Br)ccc3OC[C@@H]1[C@@H]2c1ccccc1`, in that order: above 25 µM, above 25 µM, 4.98 µM, 4.48 µM and 5.47 µM.
On to `CN(C)CCCNC(=O)C[C@H]1C[C@H](C(=O)N2CCCCC2)[C@@]2(CCc3ccccc3)c3[nH]c4cc(-c5ccco5)ccc4c3CCN2C1=O`, for which the IC50 cytotoxicity (DAPI nuclear signal decrease) in the assay with DAPI (mean of runs) is > 25 µM (inactive); in the assay with DAPI (run 1) it was above 25 µM; with DAPI (run 2), above 25 µM. In addition, the figures for the IC50 in the assay on TAG (run 1) and with TAG (run 2) were above 25 µM and 14.5 µM, respectively.
`COc1ccc(-c2nc(-c3ccccc3)c(-c3cc([N+](=O)[O-])ccc3C)[nH]2)cc1OC`: the IC50 cytotoxicity (DAPI nuclear signal decrease) with DAPI (mean of runs) was > 25 µM (inactive); in the assay on DAPI (run 1), above 25 µM; with DAPI (run 2) it was above 25 µM. Also, the IC50 in the assay on TAG (mean of runs) is 12.9 µM; with TAG (run 1) it was 12 µM; with TAG (run 2), 13.9 µM.
As for `C#CCN(C[C@H]1[C@H](OC(=O)NCCCCCC)[C@H](OC(=O)NCCCCCC)C[C@@H](C(=O)OC)[C@H]1C(=O)OC)S(=O)(=O)c1ccc(C)cc1`, the IC50 cytotoxicity (DAPI nuclear signal decrease) with DAPI (run 1) and with DAPI (run 2) was above 25 µM throughout. In addition, the figures for the half-maximal inhibitory concentration (IC50) with TAG (mean of runs), with TAG (run 1) and in the assay with TAG (run 2) were 4.91 µM, 4.31 µM and 5.5 µM, respectively.
`COC(=O)/C=C/c1ccccc1S(=O)(=O)N(Cc1ccccc1)Cc1ccco1`: the IC50 cytotoxicity (DAPI nuclear signal decrease) with DAPI (mean of runs) is > 25 µM (inactive); in the assay with DAPI (run 1), above 25 µM; in the assay on DAPI (run 2), above 25 µM. For the same compound, the values for the IC50 in the assay with TAG (mean of runs), with TAG (run 1) and in the assay on TAG (run 2) were > 25 µM (inactive), above 25 µM and above 25 µM, respectively.
On to `Nc1c(C(=O)NCc2ccccc2)sc2nc(N3CCOCC3)c3c(c12)CCCC3`, for which the IC50 cytotoxicity (DAPI nuclear signal decrease) with DAPI (mean of runs) was > 25 µM (inactive); with DAPI (run 1), above 25 µM; with DAPI (run 2), above 25 µM. Further, the IC50 with TAG (mean of runs) is > 25 µM (inactive); in the assay with TAG (run 1), above 25 µM; in the assay with TAG (run 2) it was above 25 µM.
For `O=C1N=C(N2CCOCC2)S/C1=C/c1ccc(-c2ccc(F)cc2)o1`, the figures for the IC50 cytotoxicity (DAPI nuclear signal decrease) with DAPI (mean of runs), in the assay with DAPI (run 1) and in the assay on DAPI (run 2) were > 25 µM (inactive), above 25 µM and above 25 µM, respectively. The IC50 was 19.7 µM (inactive) with TAG (mean of runs), 18.6 µM in the assay with TAG (run 1) and 20.7 µM with TAG (run 2).

Values taken from PubChem BioAssay AID651630 (Sanford-Burnham Center for Chemical Genomics, 2012).
